# Experimental data published in publication PMC7251097, “Aspartate/asparagine-β-hydroxylase: a high-throughput mass spectrometric assay for discovery of small molecule inhibitors” (Scientific Reports, 2020).
# Counter-ions that a name gives are not always drawn.
# Target: T1, His6-AspH315–758 (human aspartate/asparagine-β-hydroxylase, AspH) (Homo sapiens, UniProt Q12797)
# T1 construct: N-Terminally His6-tagged human AspH315–758 (His6-AspH315–758) was produced in E. coli BL21 (DE3) cells; made in house; host or cells: E. coli BL21 (DE3), pET-28a(+) vector
# T1 sequence (Q12797 315-758): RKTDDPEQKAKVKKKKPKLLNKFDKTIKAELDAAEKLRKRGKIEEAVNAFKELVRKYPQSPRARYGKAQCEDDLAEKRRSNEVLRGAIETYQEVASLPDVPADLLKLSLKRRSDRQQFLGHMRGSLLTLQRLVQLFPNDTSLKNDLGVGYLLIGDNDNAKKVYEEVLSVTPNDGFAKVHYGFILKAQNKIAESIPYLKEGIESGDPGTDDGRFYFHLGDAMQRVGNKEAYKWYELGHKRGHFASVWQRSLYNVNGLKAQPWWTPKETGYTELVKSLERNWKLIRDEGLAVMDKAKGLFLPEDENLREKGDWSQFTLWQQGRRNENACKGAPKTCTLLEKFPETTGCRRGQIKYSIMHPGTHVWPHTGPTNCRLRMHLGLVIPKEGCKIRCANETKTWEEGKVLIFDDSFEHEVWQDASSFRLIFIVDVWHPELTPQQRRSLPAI
# Test: SPE-MS AspH inhibition assay (LOPAC screen at fixed 20 μM and IC50 dose-response), hydroxylation of cyclic peptide hFX-CP101–119
# Format: biochemical
# Conditions: not given
Structure (SMILES),% conversion [%],Plate 5 (% conversion) [%],Plate 5 (% inhibition) [%],inhibition at 20 µM [%],Plate 1 (% conversion) [%],Plate 1 (% inhibition) [%],Plate 2 (% conversion) [%]
CN(CCCOc1ccc(Cc2ccccc2)cc1)CCC(=O)O.Cl [SC-57461A],41.07,38.96,-7.77,–,–,–,–
CN1CCc2cccc(Cl)c2CC1 [SKF 86466],40.52,–,–,-11.9,–,–,–
O=C(O)/C=C\C(=O)O.O=C(O)/C=C\C(=O)O.c1cc(CN2CCCCC2)cc(OCCCNc2nc3ccccc3s2)c1 [SKF 95282 dimaleate],24.14,–,–,–,–,–,–
C=CCN1C[C@H](C)N([C@H](c2ccc(C(=O)N(CC)CC)cc2)c2cccc(OC)c2)C[C@H]1C [SNC80],40.53,–,–,–,–,–,–
Nc1ncnc2c1ncn2C1CCCO1 (centres unmarked) [SQ 22536],37.42,–,–,–,–,–,–
CCc1ccccc1OC[C@@H](O)CN[C@H]1CCCc2ccccc21.O=C(O)C(=O)O [SR 59230A oxalate],13.86,–,–,–,–,–,–
Br.COc1ccc(-c2ccc(=N)n(CCCC(=O)O)n2)cc1 [SR-95531],38.69,–,–,–,–,–,–
CCCCCCCCCC[Si](C)(C)CCC(=O)NC(Cc1ccc(C)cc1)c1ccccc1 (centres unmarked) [Sandoz 58-035],–,–,–,–,37.15,-3.81,–
C[n+]1cc2c3c(ccc2c2ccc4cc5c(cc4c21)OCO5)OCO3 [Sanguinarine chloride],10.82,–,–,–,–,–,–
Cl.NNC(N)=O [Semicarbazide hydrochloride],22.57,–,–,–,–,–,–
NCCc1c[nH]c2ccc(O)cc12 [Serotonin hydrochloride],–,–,–,–,–,–,31.81
CC(C)COC(=O)OCN1C(=O)CN(CCN2CC(=O)N(COC(=O)OCC(C)C)C(=O)C2)CC1=O [Sobuzoxane],68.13,–,–,–,–,–,–
O=[N+]([O-])c1ccc2c(c1)S(=O)(=O)C=C2 [Stattic],34.71,–,–,–,–,–,–

# Same assay, conditions: 50 nM His6-AspH315–758, 1.0 μM hFX-CP101–119, 3 μM 2OG, 2 μM Fe(II), 50 mM HEPES pH 7.5, 20 °C; mean ± SD, n = 2 (2,4-PDCA n = 10); listed as C00007; read-out: IC50
row,Structure (SMILES),IC50 [nM]
1,"CN=c1nc(-c2ccccc2)n(-c2ccccc2)s1 [SCH-202676, reference compound]",510 ± 80

# Same assay, conditions: 50 nM His6-AspH315–758, 1.0 μM hFX-CP101–119, 3 μM 2OG, 2 μM Fe(II), 50 mM HEPES pH 7.5, 20 °C; mean ± SD, n = 2 (2,4-PDCA n = 10); read-out: IC50
row,Structure (SMILES),IC50 [nM]
1,"CN=c1nc(-c2ccccc2)n(-c2ccccc2)s1 [SCH-202676, reference compound]",~500

# Same assay, conditions: 20 µM
row,Structure (SMILES),% inhibition [%]
1,CN(CCCOc1ccc(Cc2ccccc2)cc1)CCC(=O)O.Cl [SC-57461A],-13.47
2,C=CCN1C[C@H](C)N([C@H](c2ccc(C(=O)N(CC)CC)cc2)c2cccc(OC)c2)C[C@H]1C [SNC80],-11.89
3,CCc1ccccc1OC[C@@H](O)CN[C@H]1CCCc2ccccc21.O=C(O)C(=O)O [SR 59230A oxalate],66.24
4,Br.COc1ccc(-c2ccc(=N)n(CCCC(=O)O)n2)cc1 [SR-95531],-6.50
5,O=[N+]([O-])c1ccc2c(c1)S(=O)(=O)C=C2 [Stattic],5.15

# Same assay, conditions: AspH activity; fixed compound concentration 20 μM; initial LOPAC screen; 0.5%v/v DMSO
row,Structure (SMILES),Inhibition at 20 µM [%]
1,"CN=c1nc(-c2ccccc2)n(-c2ccccc2)s1 [SCH-202676, reference compound]",100.6
2,"Br.Cc1cccc(C2CN(C)CCc3c2cc(O)c(O)c3Cl)c1 (centres unmarked) [SKF 83959 hydrobromide, reference compound]",95.1

# Same assay, conditions: LOPAC Plate 4, compound at 20 uM
row,Structure (SMILES),% inhibition [%]
1,COc1cccc(NC(=O)/C=C/c2ccc(Cl)cc2)c1 [SB-366791],0.24
2,"CN=c1nc(-c2ccccc2)n(-c2ccccc2)s1 [SCH-202676, reference compound]",100.56
3,"CCN(CC)CCOC(=O)c1cc(Cl)c(N)cc1OC.Cl [SDZ-205,557 hydrochloride]",-2.39
4,"Br.Cc1cccc(C2CN(C)CCc3c2cc(O)c(O)c3Cl)c1 (centres unmarked) [SKF 83959 hydrobromide, reference compound]",95.13
5,CN(C)c1ccc(/C=C2\C(=O)Nc3ccccc32)cc1 [SU 4312],2.06

# Same assay, conditions: LOPAC Plate 4, compound at 20 uM, substrate conversion
row,Structure (SMILES),% conversion [%]
1,COc1cccc(NC(=O)/C=C/c2ccc(Cl)cc2)c1 [SB-366791],36.39
2,CC(=O)NNC(=O)N1Cc2ccccc2Oc2ccc(Cl)cc21 [SC 19220],29.06
3,O=C(CCSCc1ccco1)NNC(=O)N1Cc2ccccc2Oc2ccc(Cl)cc21 [SC-51322],23.51
4,Nc1nc2c(cnn2CCc2ccccc2)c2nc(-c3ccco3)nn12 [SCH 58261],31.57
5,"CN=c1nc(-c2ccccc2)n(-c2ccccc2)s1 [SCH-202676, reference compound]",2.15
6,"CCN(CC)CCOC(=O)c1cc(Cl)c(N)cc1OC.Cl [SDZ-205,557 hydrochloride]",37.29
7,Cc1ccc(O)c(N=Nc2ccccc2)n1 [SIB 1757],30.83
8,Cc1cccc(/C=C/c2ccccc2)n1 [SIB 1893],34.05
9,"Br.Cc1cccc(C2CN(C)CCc3c2cc(O)c(O)c3Cl)c1 (centres unmarked) [SKF 83959 hydrobromide, reference compound]",4.00
10,C=CCNc1ncnc2ccc(Br)cc12 [SMER28],30.76
11,CN(C)c1ccc(/C=C2\C(=O)Nc3ccccc32)cc1 [SU 4312],35.77
12,CN(C)S(=O)(=O)c1ccc2c(c1)/C(=C/c1cc3c([nH]1)CCCC3)C(=O)N2 [SU 6656],31.14
13,C[C@H](O)C(=O)C1=Nc2c(nc(N)[nH]c2=O)NC1 [Sepiapterin],40.54
14,NCCCCNCCCN [Spermidine trihydrochloride],36.29
15,NCCCNCCCCNCCCN [Spermine tetrahydrochloride],39.42
16,O=C(CCCN1CCC2(CC1)C(=O)NCN2c1ccccc1)c1ccc(F)cc1 [Spiperone hydrochloride],26.03
17,CC(=O)S[C@@H]1CC2=CC(=O)CC[C@]2(C)[C@H]2CC[C@@]3(C)[C@@H](CC[C@@]34CCC(=O)O4)[C@H]12 [Spironolactone],41.84
18,C=C1C[C@@]23CC[C@H]4[C@@](C)(CCC[C@@]4(C)C(=O)O)[C@@H]2CC[C@]1(O)C3 [Steviol],37.50

# Same assay, conditions: LOPAC Plate 4, compound at 20 uM; read-out: % inhibition
row,Structure (SMILES),inhibition at 20 µM [%]
1,CN(C)S(=O)(=O)c1ccc2c(c1)/C(=C/c1cc3c([nH]1)CCCC3)C(=O)N2 [SU 6656],15.6
2,C[C@H](O)C(=O)C1=Nc2c(nc(N)[nH]c2=O)NC1 [Sepiapterin],-11.9
3,NCCCCNCCCN [Spermidine trihydrochloride],0.53
4,NCCCNCCCCNCCCN [Spermine tetrahydrochloride],-8.64
5,O=C(CCCN1CCC2(CC1)C(=O)NCN2c1ccccc1)c1ccc(F)cc1 [Spiperone hydrochloride],30.6
6,CC(=O)S[C@@H]1CC2=CC(=O)CC[C@]2(C)[C@H]2CC[C@@]3(C)[C@@H](CC[C@@]34CCC(=O)O4)[C@H]12 [Spironolactone],-15.7
7,C=C1C[C@@]23CC[C@H]4[C@@](C)(CCC[C@@]4(C)C(=O)O)[C@@H]2CC[C@]1(O)C3 [Steviol],-3.02

# Same assay, conditions: LOPAC compound at 20uM, plate 2; conversion of substrate peptide
row,Structure (SMILES),Plate 2 (% conversion) [%]
1,Cc1nc2c(OCc3ccccc3)cccn2c1CC#N [SCH-28080],38.71
2,Oc1c2ccccc2c2c3c(cccc13)N=N2 [SP600125],37.53
3,COc1cccc(OC)c1-c1cc(C(=O)NC2(C(=O)O)C3CC4CC(C3)CC2C4)nn1-c1ccc(C(=O)N(C)CCCN(C)C)cc1C(C)C (centres unmarked) [SR 142948A],44.18

# Same assay, conditions: LOPAC compound at 20uM, plate 2; normalised to DMSO and 2,4-PDCA controls
row,Structure (SMILES),Plate 2 (% inhibition) [%]
1,Cc1nc2c(OCc3ccccc3)cccn2c1CC#N [SCH-28080],-8.22
2,COc1cccc(OC)c1-c1cc(C(=O)NC2(C(=O)O)C3CC4CC(C3)CC2C4)nn1-c1ccc(C(=O)N(C)CCCN(C)C)cc1C(C)C (centres unmarked) [SR 142948A],-24.57

# Same assay, conditions: LOPAC compound at 20uM, plate 2; normalised to DMSO and 2,4-PDCA controls; read-out: Plate 2 (% inhibition)
row,Structure (SMILES),inhibition at 20 µM [%]
1,Oc1c2ccccc2c2c3c(cccc13)N=N2 [SP600125],-4.71
2,NCCc1c[nH]c2ccc(O)cc12 [Serotonin hydrochloride],12.4

# Same assay, conditions: LOPAC compound at 20uM, plate 3; conversion of substrate peptide
row,Structure (SMILES),Plate 3 (% conversion) [%]
1,Cc1cc2c(cc1Cl)N(C(=O)Nc1cccc3ncccc13)CC2 [SB-215505],42.68
2,NS(=O)(=O)c1ccc(-n2nc(C(F)(F)F)cc2-c2ccc(Cl)cc2)cc1 [SC-236],40.00
3,CS(=O)(=O)c1ccc(-n2nc(C(F)(F)F)cc2-c2ccc(F)cc2)cc1 [SC-58125],37.41
4,CCCC(C(=O)OCCN(CC)CC)(c1ccccc1)c1ccccc1.Cl [SKF-525A hydrochloride],49.23
5,CC(C)(C)C(=O)Oc1ccc(S(=O)(=O)Nc2ccccc2C(=O)NCC(=O)[O-])cc1.[Na+] [Sivelestat sodium salt hydrate],36.62
6,NC(=O)C(=O)O [Sodium Oxamate],31.22

# Same assay, conditions: LOPAC compound at fixed 20 uM; plate 1, normalised to DMSO and 2,4-PDCA controls
row,Structure (SMILES),Plate 1 (% inhibition) [%]
1,Br.CN1Cc2sccc2C(c2ccc(O)c(O)c2)C1 (centres unmarked) [SKF-89145 hydrobromide],78.75
2,CCCc1nn(C)c2c(=O)[nH]c(-c3cc(S(=O)(=O)N4CCN(C)CC4)ccc3OCC)nc12.O=C(O)CC(O)(CC(=O)O)C(=O)O [Sildenafil citrate salt],83.33
3,O=C1NC(=O)[C@@]2(CCOc3ccc(F)cc32)N1 [Sorbinil],-13.94

# Same assay, conditions: LOPAC compound at fixed 20 uM; substrate conversion, plate 1
row,Structure (SMILES),Plate 1 (% conversion) [%]
1,Br.CN1Cc2sccc2C(c2ccc(O)c(O)c2)C1 (centres unmarked) [SKF-89145 hydrobromide],9.43
2,CCCc1nn(C)c2c(=O)[nH]c(-c3cc(S(=O)(=O)N4CCN(C)CC4)ccc3OCC)nc12.O=C(O)CC(O)(CC(=O)O)C(=O)O [Sildenafil citrate salt],7.89
3,O=C1NC(=O)[C@@]2(CCOc3ccc(F)cc32)N1 [Sorbinil],40.55

# Same assay, conditions: plate 5 (Pfitzer), test compounds at fixed 20 μM
row,Structure (SMILES),Plate 5 (% inhibition) [%]
1,NS(=O)(=O)c1ccc(-n2nc(C(F)(F)F)cc2-c2ccc(Cl)cc2)cc1 [SC-236],-23.50
2,N#CC(CCCN1CCN(/N=C/c2cccnc2)CC1)(c1ccccc1)c1ccccc1 [SC-26196],23.44
3,O=C(CCSCc1ccco1)NNC(=O)N1Cc2ccccc2Oc2ccc(Cl)cc21 [SC-51322],13.59
4,COc1cc(N)c(Cl)cc1C(=O)NC[C@@H]1CCN2CCC[C@@H]12 [SC-53116],9.86
5,CS(=O)(=O)c1ccc(-n2nc(C(F)(F)F)cc2-c2ccc(F)cc2)cc1 [SC-58125],0.65
6,Cc1cc(C)c(/C=C2\C(=O)Nc3ccc(Cl)cc32)[nH]1 [SU5614],8.69

# Same assay, conditions: plate 5 (Pfitzer), test compounds at fixed 20 μM; mean conversion DMSO 32.88
row,Structure (SMILES),Plate 5 (% conversion) [%]
1,NS(=O)(=O)c1ccc(-n2nc(C(F)(F)F)cc2-c2ccc(Cl)cc2)cc1 [SC-236],44.31
2,N#CC(CCCN1CCN(/N=C/c2cccnc2)CC1)(c1ccccc1)c1ccccc1 [SC-26196],28.34
3,O=C(CCSCc1ccco1)NNC(=O)N1Cc2ccccc2Oc2ccc(Cl)cc21 [SC-51322],31.69
4,COc1cc(N)c(Cl)cc1C(=O)NC[C@@H]1CCN2CCC[C@@H]12 [SC-53116],32.96
5,CS(=O)(=O)c1ccc(-n2nc(C(F)(F)F)cc2-c2ccc(F)cc2)cc1 [SC-58125],36.09
